Experimental data as given in publication PMC7129073 (Clinical Microbiology and Infection, 2015).
Converted amounts (≈) assume the structure as drawn. Where two headings read alike, the source gives them in different places.

Key:
[1] = tested on: Haemophilus influenzae (HI); assay: MIC; type: cell-based; conditions: 7489 isolates
[2] = tested on: inducible Enterobacteriaceae; assay: SMART 2003, intraabdominal isolates; type: cell-based; conditions: LA (N=113)
S. pneumoniae [3] = assay: PROTEKT Italy, NCCLS microdilution; type: cell-based, Streptococcus pneumoniae
Enterobacteriaceae = assay: SMART 2003 Europe, microdilution; type: cell-based; conditions: 1948 isolates
[4] = tested on: Streptococcus agalactiae strains P0162 and P0425; assay: Microdilution; type: cell-based
Klebsiella = assay: SMART 2003 Europe, microdilution; type: cell-based, Klebsiella spp.; conditions: 341 isolates
E. coli = assay: SMART 2003 Europe, microdilution; type: cell-based, Escherichia coli; conditions: 1106 isolates
[5] = tested on: Streptococcus pneumoniae (SPN); assay: MIC; type: cell-based; conditions: 8378 isolates
S. pneumoniae [6] = assay: MIC of invasive strains, Saint George Hospital 2001–2004; type: cell-based, Streptococcus pneumoniae
S. aureus = assay: NCCLS broth microdilution, SSTI isolates; type: cell-based; conditions: Staphylococcus aureus
S. pneumoniae (SPN) [7] = assay: NCCLS broth microdilution, fluoroquinolones 1999–2004; type: cell-based, Streptococcus pneumoniae; conditions: Streptococcus pneumoniae, read-out: MIC90 during the six years, 1999–2004
S. pneumoniae [8] = assay: SELECT study, levofloxacin-treated RTIs caused by S. pneumoniae; type: in vivo, human
Acinetobacter = assay: Disk diffusion; type: cell-based
[9] = tested on: Streptococcus pyogenes (SPY); assay: MIC; type: cell-based; conditions: 2522 isolates
[10] = tested on: Moraxella catarrhalis (MC); assay: MIC; type: cell-based; conditions: 2497 isolates
[11] = tested on: Pseudomonas aeruginosa (PA); assay: MIC; type: cell-based
S. pneumoniae [12] = assay: Broth microdilution; type: cell-based, Streptococcus pneumoniae; conditions: 275 isolates
[13] = tested on: viridans group streptococci (VGS); assay: MIC; type: cell-based
Clostridium difficile = assay: microbe, parasite or virus in culture; type: cell-based
[14] = tested on: Clostridium difficile (CD); assay: Agar dilution MIC, CDAD isolates Montreal; type: cell-based; conditions: Clostridioides difficile
F. necrophorum = assay: E-test, 13 clinical isolates; type: cell-based, Fusobacterium necrophorum
B. fragilis strains = assay: E-test MIC before and after passages on metronidazole agar; type: cell-based; conditions: Bacteroides fragilis
[15] = tested on: Klebsiella pneumoniae (KPN)
[16] = tested on: Salmonella, other 49 serotypes; assay: Disk diffusion, food isolates Spain; type: cell-based; conditions: n = 115
nontyphoidal Salmonella = assay: Agar dilution, isolates from chickens 1998–2004; type: cell-based, Salmonella spp.
Proteus mirabilis (PMI) = assay: Broth microdilution; type: cell-based
Escherichia coli (ECO) = assay: Broth microdilution; type: cell-based
Escherichia coli O157:H7 = assay: Kirby-Bauer susceptibility; type: cell-based; conditions: 30 strains, 1990–2003
Shigella spp. = assay: Disk diffusion, stool isolates Tehran; type: cell-based; conditions: 96 isolates
[17] = tested on: Enterobacter cloacae (ECL); assay: Broth microdilution; type: cell-based
K. oxytoca isolate = assay: MIC of qnr-positive SHV-12 producer; type: cell-based; conditions: Klebsiella oxytoca
Streptococcus pneumoniae = assay: BSAC agar dilution, lower respiratory isolates UK and Ireland; type: cell-based
enterococci [18] = assay: Disk diffusion, urine isolates of BPH patients; conditions: strains isolated post-operatively
S. pyogenes = assay: Broth microdilution; type: cell-based, Streptococcus pyogenes; conditions: 212 isolates
N.gonorrhoeae = assay: microbe, parasite or virus in culture; type: cell-based; conditions: Neisseria gonorrhoeae
enterococci [19] = assay: Disk diffusion and E-test, faecal isolates of cancer patients; type: cell-based, Enterococcus; conditions: 38 strains; gentamycin: high level
[20] = tested on: viridans group streptococci (VgS) and Streptococcus bovis; assay: Broth microdilution and disk diffusion; type: cell-based; conditions: nine species
H. influenzae (HI) = assay: SENTRY Brazil, NCCLS broth microdilution; type: cell-based, Haemophilus influenzae
S. pneumoniae (SPN) [21] = assay: SENTRY Brazil, NCCLS broth microdilution; type: cell-based, Streptococcus pneumoniae
[22] = tested on: Salmonella serotype Typhimurium; assay: Disk diffusion, food isolates Spain; type: cell-based; conditions: n = 53
Salmonella spp. = assay: Agar dilution susceptibility, gastroenteritis isolates Cuba; type: cell-based; conditions: 34 strains, 2002

With `C[C@H]1COc2c(N3CCN(C)CC3)c(F)cc3c(=O)c(C(=O)O)cn1c23` [levofloxacin] the MIC90 [1] was 0.12 ig/ml, the “% susceptible” value [2] was 80% and the susceptible (S. pneumoniae [3]; year 1: 2002) was 97.3%. For the same compound, the susceptible (S. pneumoniae [3]; year 2: 2003) was 97.1%, the per cent susceptible (Enterobacteriaceae) was 86% and the MIC ([4]; strain P0162 (ParC Ser79Phe, GyrA Glu85Ala)) was 8 µg/mL (≈ 22.1 µM). The MIC ([4]; strain P0425 (ParC Ser79Phe, GyrA Glu85Lys)) was greater than 32 µg/mL, the per cent susceptible (Klebsiella) was 93% and the per cent susceptible (E. coli) was 81%. For the same compound, the MIC90 [5] was 1 ig/ml, the “% S” value (S. pneumoniae [6]) was 100% and the “%R” value (S. pneumoniae [6]) was 0%. It also gave an MIC50 (S. aureus) of 0.25 µg/mL (≈ 0.692 µM), an MIC90 (S. pneumoniae (SPN) [7]) of 1 to 2 µg/mL (≈ 2.77 to 5.53 µM) and a clinical successes (S. pneumoniae [8]; 500 mg once or twice daily, 90/100 subjects) of 90%. For the same compound, the “clinical success, PNSSPs” value (S. pneumoniae [8]; 44/49) was 89.8%, the “clinical success, PSSPs” value (S. pneumoniae [8]; 46/51) was 90.2% and the “died due to initial infection” value (S. pneumoniae [8]; eight subjects) was 8%. It also gave a clinical failures (S. pneumoniae [8]; two subjects) of 2%, a resistant isolates (Acinetobacter) of 78.4% and an MIC90 [9] of 1 ig/ml. The MIC90 [10] was 0.12 ig/ml, the “isolates with MPC ≥ 8 μg/ml” value [11] was 64% and the MPC range ([11]; 10 billion organisms on agar) was 2 to 16 µg/mL. The MIC range ([11]; patients P1 and P2) was 0.25 to 2 µg/mL, the Susceptibility (S. pneumoniae [12]) was 99.6% and the MIC50 [13] was 0.5 µg/mL (≈ 1.38 µM). The MIC90 [13] was 1 µg/mL (≈ 2.77 µM).
`Cc1ncc([N+](=O)[O-])n1CCO` [metronidazole] gave an MIC (Clostridium difficile; Clostridioides difficile, read-out: MICs of selected resistant isolates) of 16 to 64 µg/mL (≈ 93.5 to 374 µM), a prevalence of resistance (Clostridium difficile; authors' institution) of 6% and an MIC ([14]; read-out: median MIC, 2003–4) of 2 µg/mL (≈ 11.7 µM). For the same compound, the MIC ([14]; read-out: median MIC, other ribotypes) was 0.5 µg/mL (≈ 2.92 µM), the MIC range (F. necrophorum) was 0.016 to 2 µg/mL and the MIC50 (F. necrophorum; Fusobacterium necrophorum) was 0.125 µg/mL (≈ 0.73 µM). It also gave an MIC90 (F. necrophorum; Fusobacterium necrophorum) of 0.5 µg/mL (≈ 2.92 µM), an MIC (B. fragilis strains; 10 nim-negative clinical isolates) of 0.25 to 0.75 µg/mL (≈ 1.46 to 4.38 µM) and an MIC (B. fragilis strains; ATCC25285, ATCC 25285, nim-negative) of 0.19 µg/mL (≈ 1.11 µM). It also gave an MIC (B. fragilis strains; four nim-positive reference strains) of 3 to 8 µg/mL (≈ 17.5 to 46.7 µM) and an MIC (B. fragilis strains; three nim-positive clinical isolates) greater than 256 µg/mL.
In the case of `CCn1cc(C(=O)O)c(=O)c2ccc(C)nc21` [nalidixic acid], the resistance [15]; 1984 was 12.2%, the resistance [15]; 2001 was 21.6% and the “resistance rate (NCCLS M100-S13)” value [16] was 14%. The resistance (nontyphoidal Salmonella; Germany (carcass meat)) was 9%, the resistance (Proteus mirabilis (PMI); 1984) was 2.6% and the resistance (Proteus mirabilis (PMI); 2001) was 15.9%. It also gave a resistance (Escherichia coli (ECO); 1984) of 1.6%, a resistance (Escherichia coli (ECO); 2001) of 19.2% and a resistant strains (Escherichia coli O157:H7) of 10%. It also gave a sensitive (Shigella spp.) of 96%, a resistance [17]; 1984 of 2.0% and a resistance [17]; 2001 of 17.5%. The MIC (K. oxytoca isolate) was 16 µg/mL.
In the case of `CN(C)[C@@H]1C(O)=C(C(N)=O)C(=O)[C@@]2(O)C(O)=C3C(=O)c4c(O)cccc4[C@@](C)(O)[C@H]3C[C@@H]12` [tetracycline], the “resistance (PEN-NS >0.06, TET-R >1, ERY-R >0.5, CIP-R >2 mg/L)” value (Streptococcus pneumoniae; Ireland 1999–2000, N 66) was 24.2%, the “resistance (same cut-offs)” value (Streptococcus pneumoniae; Ireland 2000–2001, N 59) was 25.4% and the “resistance (same cut-offs)” value (Streptococcus pneumoniae; Ireland 2001–2002, N 68) was 16.2%. The “resistance (same cut-offs)” value (Streptococcus pneumoniae; Ireland 2002–2003, N 89) was 10.1%, the “resistance (same cut-offs)” value (Streptococcus pneumoniae; Ireland 2003–2004, N 76) was 7.9% and the “resistance (same cut-offs)” value (Streptococcus pneumoniae; UK 1999–2000, N 595) was 7.2%. For the same compound, the “resistance (same cut-offs)” value (Streptococcus pneumoniae; UK 2000–2001, N 608) was 6.3%, the “resistance (same cut-offs)” value (Streptococcus pneumoniae; UK 2001–2002, N 631) was 4.8% and the “resistance (same cut-offs)” value (Streptococcus pneumoniae; UK 2002–2003, N 683) was 5.7%. The “resistance (same cut-offs)” value (Streptococcus pneumoniae; UK 2003–2004, N 709) was 6.2%, the resistance (enterococci [18]) was 77.8% and the nonsusceptible (S. pyogenes) was 25.9%. The MIC (N.gonorrhoeae; strain 76mu6) was 8 µg/mL (≈ 18 µM), the MIC (N.gonorrhoeae; strain 76mu10) was 8 µg/mL (≈ 18 µM) and the MIC (N.gonorrhoeae; strain 92mu6) was 2 µg/mL (≈ 4.5 µM). For the same compound, the MIC (N.gonorrhoeae; strain 92mu13) was 2 µg/mL (≈ 4.5 µM), the resistance (nontyphoidal Salmonella; Belgian collection (caecal samples; Belgium, France, Netherlands)) was 33% and the resistant strains (enterococci [19]) was 55%. For the same compound, the resistant isolates (Acinetobacter; 37 isolates selected as resistant to beta-lactams) was 100.0%, the “% S, range between species” value [20] was 35.0 – 93.9% and the “% S” value (H. influenzae (HI); 1998) was 96%. For the same compound, the “% S” value (H. influenzae (HI); 1999) was 84%, the “% S” value (H. influenzae (HI); 2000) was 95% and the “% S” value (H. influenzae (HI); 2001) was 95%. The “% S” value (H. influenzae (HI); 2002) was 98%, the “% S” value (H. influenzae (HI); 2003) was 96% and the “% S” value (S. pneumoniae (SPN) [21]; 1998) was 72%. For the same compound, the “% S” value (S. pneumoniae (SPN) [21]; 1999) was 75%, the “% S” value (S. pneumoniae (SPN) [21]; 2000) was 82% and the “% S” value (S. pneumoniae (SPN) [21]; 2001) was 78%. The “% S” value (S. pneumoniae (SPN) [21]; 2002) was 86%, the “% S” value (S. pneumoniae (SPN) [21]; 2003) was 85% and the “resistance rate (NCCLS M100-S13)” value [22] was 72%. It also gave a resistance (Salmonella spp.) of 53%.
